The test system of series [1] is M. tuberculosis. As to the kind of experiment: MIC in modified 7H10 broth against M. tuberculosis (Table 3). The series is classed as cell-based, Mycobacterium tuberculosis. The arrangement: MIC, M. tuberculosis ATCC 35801 / MIC, M. tuberculosis ATCC 27294: unit not given here. The following applies: for MIC, M. tuberculosis ATCC 27294: ATCC 27294 (H37RV, PZA susceptible), pH 5.8; for MIC, M. tuberculosis ATCC 35801: ATCC 35801, pH 5.8.

The test system of series [2] is M. tuberculosis. Nature of the series: microbe, parasite or virus in culture. It is filed as cell-based, Mycobacterium tuberculosis. Also on record: MIC, pansusceptible strain, pH 5.5 / MIC, Pansusceptible strain, pH 6.0 / MIC, Pansusceptible strain, pH 6.8: unit not given here. The following applies: for MIC, Pansusceptible strain, pH 6.0 / MIC, Pansusceptible strain, pH 6.8: 7H12 BACTEC broth, three pansusceptible strains; for MIC: Mycobacterium tuberculosis, same at pH 6.0 and 6.8.

Series [3] concerns M. avium complex. As to the kind of experiment: MIC in modified 7H10 broth against M. avium complex (Tables 3, 4). The series is classed as cell-based, Mycobacterium avium. The arrangement: unit not given here.
The test system of series [4] is M. tuberculosis. As to the kind of experiment: Murine model of tuberculosis, combination with KRM-1648 (RLZ) (FIG. 2). It is filed as in vivo. The settings on record: mice, in combination with KRM-1648 (Rifalazil, RLZ).
In series [5] the test system is M. kansasii. As to the kind of experiment: MIC in modified 7H10 broth against M. kansasii (Tables 3, 4). Also on record: unit not given beside the values. The series is classed as cell-based, Mycobacterium kansasii. The following applies: clinical isolate S.
Series [6] deals with Mycobacterium avium. The following applies: Heifets et al, Am. Rev. Resp. Dis. 134: 1287-1288 (1986); cited from earlier work.
The conditions of series [7]: cited from earlier work.
The subject of series [8] is Mtb organisms which have been phagocytized. The settings on record: reduced efficacy after 4 to 7 days; cited from earlier work.
Setting [9] is: Table 3, ATCC 49601 (serotype 1), modified 7H10 broth, pH 5.8.
The mark [10] stands for this setting: Table 3, strain 101 (serotype 1), modified 7H10 broth, pH 5.8.
[11] abbreviates: Table 3, modified 7H10 broth, pH 5.8.

In brackets after ≈: the same amount, converted by molar mass. Bounds are passed on as bounds.

In the case of `O=C(NCN1CCCC1)c1cnccn1` [Compound 1, pyrazine-2-carboxylic acid (pyrrolidin-1-ylmethyl)-amide], the “MIC, M. tuberculosis ATCC 27294” value in series [1] was determined as 16. Moreover, the “MIC, M. tuberculosis ATCC 35801” value in series [1] is on record as 8. Besides, the “MIC, Pansusceptible strain, pH 6.0” value in series [2] was 100. Further, the “MIC, Pansusceptible strain, pH 6.8” value in series [2] was 100. Moreover, the “MIC, pansusceptible strain, pH 5.5” value in series [2] (pansusceptible strain, pH 5.5) came out at 50. For the same compound, the “MIC, M. avium complex ATCC 49601” value is given as over 128 in series [3] (setting [9]) and over 128 in series [3] (Table 4, ATCC 49601). In addition, the “MIC, M. avium complex 101” value is listed as over 128 in series [3] (setting [10]) and over 128 in series [3] (Table 4, strain 101). In addition, the “reduction of CFUs / infection in murine model of tuberculosis” value (shortened to “reduction of CFUs / infection”) in series [4] was “superior or equivalent to PZA in reducing CFUs”. Besides, the “MIC, M. kansasii S” value in series [5] (setting [11]) and in series [5] (Table 4) was 128 throughout.

On to `CCN(CC)CNC(=O)c1cnccn1` [Compound 2, pyrazine-2-carboxylic acid diethylaminomethyl-amide], for which, in series [1], the “MIC, M. tuberculosis ATCC 27294” value stood at 16 and the “MIC, M. tuberculosis ATCC 35801” value came to 2. In series [2], the “MIC, Pansusceptible strain, pH 6.0” value stood at 100 and the “MIC, Pansusceptible strain, pH 6.8” value worked out at 100. Further, the MIC in series [2] (7H12 broth) was 100 µg/mL (≈ 480 µM). Further, the “MIC, M. avium complex ATCC 49601” value in series [3] (setting [9]) is recorded as 128. Besides, in series [3] (setting [10]), the “MIC, M. avium complex 101” value turned out to be 128. Besides, in series [4], the “reduction of CFUs / infection” value is given as “superior or equivalent to PZA in reducing CFUs”. In addition, the “MIC, M. kansasii S” value in series [5] (setting [11]) was 128.

Consider `O=C(NCN1CCOCC1)c1cnccn1` [Compound 4, (morpholin-4-ylmethyl)-amide], for which the “MIC, M. tuberculosis ATCC 27294” value in series [1] is recorded as 32. Moreover, the “MIC, M. tuberculosis ATCC 35801” value in series [1] is 16. The “MIC, M. avium complex ATCC 49601” value in series [3] (setting [9]) is over 128; in series [3] (Table 4, ATCC 49601), over 128. Also, the “MIC, M. avium complex 101” value in series [3] (setting [10]) is listed as over 128; in series [3] (Table 4, strain 101), 128. In addition, the “MIC, M. kansasii S” value in series [5] (setting [11]) and in series [5] (Table 4) was 128 throughout.

Take `NC(=O)c1cnc(Cl)cn1` [Compound 5-Chloro-PZA, 5-chloro-pyrazinamide, reference compound]: the “MIC, M. tuberculosis ATCC 27294” value in series [1] is 16. Also, in series [1], the “MIC, M. tuberculosis ATCC 35801” value was 16. For the same compound, the “MIC, M. avium complex ATCC 49601” value in series [3] (setting [9]) came out at 32; in series [3] (Table 4, ATCC 49601) it was 32. For the same compound, the “MIC, M. avium complex 101” value in series [3] (setting [10]) worked out at 32; in series [3] (Table 4, strain 101), 32. Also, the “MIC, M. kansasii S” value in series [5] (setting [11]) and in series [5] (Table 4) was 32 in each case.

On to `CCCCN(CC)CNC(=O)c1cnccn1` [Compound 5], for which the “MIC, M. avium complex ATCC 49601” value in series [3] (Table 4, ATCC 49601) was over 128. Moreover, the “MIC, M. avium complex 101” value in series [3] (Table 4, strain 101) was 128. In addition, in series [5] (Table 4), the “MIC, M. kansasii S” value is over 128.

On to `CCCCN(C)CNC(=O)c1cnccn1` [Compound 6], for which the “MIC, M. avium complex ATCC 49601” value in series [3] (Table 4, ATCC 49601) was over 128. In series [3] (Table 4, strain 101), the “MIC, M. avium complex 101” value turned out to be 128. In addition, the “MIC, M. kansasii S” value in series [5] (Table 4) came out at 128.

In the case of `CN1CCN(CNC(=O)c2cnccn2)CC1` [Compound 7, (piperazin-1-ylmethyl)-amide], the “MIC, M. avium complex ATCC 49601” value in series [3] (Table 4, ATCC 49601) is recorded as over 128. Also, the “MIC, M. avium complex 101” value in series [3] (Table 4, strain 101) is over 128. Besides, the “MIC, M. kansasii S” value in series [5] (Table 4) was over 128.

As to `CN(CNC(=O)c1cnccn1)Cc1ccccc1` [Compound 8, [(benzyl-methyl-amino)-methyl]-amide], in series [3] (Table 4, ATCC 49601), the “MIC, M. avium complex ATCC 49601” value was found to be 128. Besides, the “MIC, M. avium complex 101” value in series [3] (Table 4, strain 101) worked out at 128. For the same compound, the “MIC, M. kansasii S” value in series [5] (Table 4) came out at 128.

For the compound `CCCN(CCC)CNC(=O)c1cnccn1` [Compound 9, dipropylaminomethyl-amide], in series [3] (Table 4, ATCC 49601), the “MIC, M. avium complex ATCC 49601” value was over 128. Moreover, the “MIC, M. avium complex 101” value in series [3] (Table 4, strain 101) came out at 128. Also, the “MIC, M. kansasii S” value in series [5] (Table 4) is 128.

As for `CCCCN(CCCC)CNC(=O)c1cnccn1` [Compound 10], the “MIC, M. avium complex ATCC 49601” value in series [3] (Table 4, ATCC 49601) is over 128. The “MIC, M. avium complex 101” value in series [3] (Table 4, strain 101) is recorded as over 128. Moreover, the “MIC, M. kansasii S” value in series [5] (Table 4) is recorded as over 128.

On to `CCN(CC)CNC(=O)c1cnc(N(CC)CC)cn1` [Compound 17, 5-diethylamino-pyrazinoic acid diethylaminomethyl-amide], for which, in series [1], the “MIC, M. tuberculosis ATCC 27294” value came out at 64 and the “MIC, M. tuberculosis ATCC 35801” value was 16. For the same compound, the “MIC, M. avium complex ATCC 49601” value in series [3] (setting [9]) is on record as over 128. Besides, the “MIC, M. avium complex 101” value in series [3] (setting [10]) is given as “(>128”. In series [5] (setting [11]), the “MIC, M. kansasii S” value is over 128.

As for `O=C(NCN1CCOCC1)c1cnccn1` [MZA, morphazinamide], the MIC in series [2] (7H12 broth) turned out to be 100 µg/mL (≈ 450 µM).

For `NC(=O)c1cnccn1` [PZA, Pyrazinamide], the “MIC, M. tuberculosis ATCC 27294” value in series [1] worked out at 16. Further, the “MIC, M. tuberculosis ATCC 35801” value in series [1] is listed as 32. In addition, the “difference in MICs under different pH conditions” value in series [2] (7H12 broth, pH 6.0 v. 6.8) is listed as “dramatic difference”. Moreover, the “MIC, M. avium complex ATCC 49601” value in series [3] (setting [9]) was over 2048; in series [3] (Table 4, ATCC 49601), over 2048. The “MIC, M. avium complex 101” value in series [3] (setting [10]) is on record as over 2048; in series [3] (Table 4, strain 101), over 2048. Besides, in series [6], the “activity against Mycobacterium avium” value is given as “Neither is it active”. In addition, the “reduction of CFUs / infection” value in series [4] is given as “effective in reducing infection”. The “MIC, M. kansasii S” value in series [5] (setting [11]) and in series [5] (Table 4) was 2048 throughout. The pKa in series [7] is recorded as 0.5. For the same compound, the activity in macrophages result in series [8] is “either weakly or clearly bacteriostatic in macrophages”.

For orientation: pKa means the negative logarithm of the acid dissociation constant.
